Like-named read-outs stand apart in the source and are kept apart here.
Legend:
Type in all cases: biochemical
Pim-2 = Pim-2 (Homo sapiens (Human), UniProt Q9P1W9); test: Pim-2 kinase assay
Method: Pim-2 kinase assay-20 μL reactions were run in white 384 well polystyrene plates dotted with 0.8 μL compound/DMSO in the assay buffer (50 mM Tris, pH 7.5, 0.01% Tween-20, 5 mM MgCl2, 0.01% BSA, 5 mM DTT), containing 0.05 μM Fluorescein-labeled CREBtide peptide substrate (Invitrogen PV3508), 1 mM ATP, and 1 nM enzyme (Invitrogen PV3649) for 2 h at 25° C. Reactions were stopped by addition of 10 μL TR-FRET Dilution Buffer (Invitrogen PV3574) with 30 mM EDTA and 1.5 nM LanthaScreen Tb-CREB pSer133 antibody (Invitrogen PV3566). After 30 min. incubation at room temperature, plates were read on a PHERAstar FS plate reader (BMG Labtech).
Although the above in vitro assays are conducted at 1 mM ATP compounds can also be evaluated for potency and in vitro activity against PIM targets utilizing Km conditions, where the concentration of ATP is set to the Km value and the assay is more sensitive to PIM inhibition activity.

Pim-3 = Pim-3 (Homo sapiens (Human), UniProt Q86V86); test: Pim-3 kinase assay; conditions: 1 mM ATP; read-out: Pim3 IC50
Method: Pim-1 and Pim-3 kinase assays-20 μL reactions were run in white 384 well polystyrene plates dotted with 0.8 μL compound/DMSO in the assay buffer (50 mM Tris, pH 7.5, 0.01% Tween-20, 5 mM MgCl2, 0.01% BSA, 5 mM DTT), containing 0.05 μM Biotin-labeled BAD peptide substrate (AnaSpec 62269), 1 mM ATP, and […] (Pim-1, Invitrogen PV3503) or […] (Pim-3, Millipore 14-738) enzyme for 1 h at 25° C. Reactions were stopped by addition of 10 μL STOP Buffer (150 mM Tris, pH=7.5, 150 mM NaCl, 75 mM EDTA, 0.01% Tween-20, 0.3% BSA) supplemented with Phospho-Bad (Ser112) Antibody (Cell Signaling 9291) diluted 666-fold, and Streptavidin donor beads (PerkinElmer 6760002) along with Protein-A acceptor beads (PerkinElmer 6760137) at 15 μg/mL each. Supplementation of the STOP buffer with beads and stopping the reactions were done under reduced light. Prior to the stopping reactions STOP buffer with beads was pre-incubated for 1 h in the dark at room temperature. After stopping the reactions, plates were incubated for 1 h in the dark at room temperature before reading on a PHERAstar FS plate reader (BMG Labtech) under reduced light.

Pim-1 = Pim-1 (Homo sapiens (Human), UniProt P11309); test: Pim-1 kinase assay; conditions: 1 mM ATP; read-out: Pim1 IC50
Pim-1, sequence (P11309 whole entry): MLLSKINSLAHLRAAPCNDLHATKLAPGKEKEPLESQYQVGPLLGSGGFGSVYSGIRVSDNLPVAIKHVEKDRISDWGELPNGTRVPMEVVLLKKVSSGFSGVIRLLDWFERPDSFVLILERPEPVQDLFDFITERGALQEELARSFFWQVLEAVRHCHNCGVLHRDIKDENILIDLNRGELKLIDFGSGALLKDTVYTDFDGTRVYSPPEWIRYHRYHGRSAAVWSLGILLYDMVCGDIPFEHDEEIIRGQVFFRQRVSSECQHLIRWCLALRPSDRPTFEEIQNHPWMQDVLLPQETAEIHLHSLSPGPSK
Method: Supplementation of the STOP buffer with beads and stopping the reactions were done under reduced light. Prior to the stopping reactions STOP buffer with beads was pre-incubated for 1 h in the dark at room temperature. After stopping the reactions, plates were incubated for 1 h in the dark at room temperature before reading on a PHERAstar FS plate reader (BMG Labtech) under reduced light.

Pim-2, sequence (Q9P1W9 whole entry): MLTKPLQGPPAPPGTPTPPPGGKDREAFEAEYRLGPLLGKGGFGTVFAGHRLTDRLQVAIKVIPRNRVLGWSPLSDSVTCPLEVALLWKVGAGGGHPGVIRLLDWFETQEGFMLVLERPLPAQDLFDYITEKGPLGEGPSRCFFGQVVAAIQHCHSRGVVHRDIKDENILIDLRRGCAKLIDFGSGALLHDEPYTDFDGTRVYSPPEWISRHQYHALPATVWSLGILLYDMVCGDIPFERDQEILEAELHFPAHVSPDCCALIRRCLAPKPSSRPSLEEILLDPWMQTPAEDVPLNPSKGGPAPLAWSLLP

SMILES | IC50 (Pim-2; 1 mM ATP, read-out: Pim2 IC50) [µM] | IC50 (Pim-3) [µM] | IC50 (Pim-1) [µM] | IC50 (Pim-2; Km ATP concentration rather than 1 mM, read-out: Pim2 IC50 at Km ATP concentration) [µM]
C[C@H]1CN(c2c(NC(=O)c3ccc(F)c(-c4c(F)cccc4F)n3)cnc3c2CCC3O)C[C@@H](N)[C@@H]1O (mixture of isomers) [Example 37, N-{4-[(3R,4R,5S)-3-Amino-4-hydroxy-5-methylpiperidin-1-yl]-7-hydroxy-6,7-dihydro-5H-cyclopenta[b]pyridin-3-yl}-6-(2,6-difluorophenyl)-5-fluoropyridine-2-carboxamide] | ≤ 0.1 | ≤ 0.1 | ≤ 0.1 | –
Nc1sc(-c2c(F)cccc2F)nc1C(=O)Nc1cnc2c(c1N1CCC[C@H](N)C1)CCC2O (single isomer, unassigned) [15 (Diastereoisomer 1)] | ≤ 0.1 | ≤ 0.1 | ≤ 0.1 | –
Nc1sc(-c2c(F)cccc2F)nc1C(=O)Nc1cnc2c(c1N1CCC[C@H](N)C1)CCC2O (single isomer, unassigned) [15 (Diastereoisomer 2)] | ≤ 0.1 | ≤ 0.1 | ≤ 0.1 | –
N[C@H]1CCCN(c2c(NC(=O)c3csc(-c4c(F)cccc4F)n3)cnc3c2CCC3O)C1 (single isomer, unassigned) [16 (Diastereoisomer 1)] | > 2 | ≤ 0.1 | ≤ 0.1 | –
N[C@H]1CCCN(c2c(NC(=O)c3csc(-c4c(F)cccc4F)n3)cnc3c2CCC3O)C1 (single isomer, unassigned) [16 (Diastereoisomer 2)] | > 2 | ≤ 0.1 | ≤ 0.1 | –
N#CC1CCc2c1ncc(NC(=O)c1nc(-c3c(F)cccc3F)sc1N)c2N1CCC[C@H](N)C1 (single isomer, unassigned) [18 (Diastereoisomer 1)] | 0.1 to 1 | ≤ 0.1 | ≤ 0.1 | –
N#CC1CCc2c1ncc(NC(=O)c1nc(-c3c(F)cccc3F)sc1N)c2N1CCC[C@H](N)C1 (single isomer, unassigned) [18 (Diastereoisomer 2)] | 0.1 to 1 | ≤ 0.1 | ≤ 0.1 | –
CC1(O)CCc2c1ncc(NC(=O)c1nc(-c3c(F)cccc3F)sc1N)c2N1CCC[C@H](N)C1 (single isomer, unassigned) [19 (Diastereoisomer 1)] | > 2 | 0.1 to 1 | ≤ 0.1 | –
CC1(O)CCc2c1ncc(NC(=O)c1nc(-c3c(F)cccc3F)sc1N)c2N1CCC[C@H](N)C1 (single isomer, unassigned) [19 (Diastereoisomer 2)] | 0.1 to 1 | ≤ 0.1 | ≤ 0.1 | –
N[C@H]1CCCN(c2c(NC(=O)c3ccc(F)c(-c4c(F)cccc4F)n3)cnc3c2CCC3O)C1 (single isomer, unassigned) [22 (Diastereoisomer 1)] | 0.1 to 1 | ≤ 0.1 | ≤ 0.1 | –
N[C@H]1CCCN(c2c(NC(=O)c3ccc(F)c(-c4c(F)cccc4F)n3)cnc3c2CCC3O)C1 (single isomer, unassigned) [22 (Diastereoisomer 2)] | ≤ 0.1 | ≤ 0.1 | ≤ 0.1 | –
Nc1cc(F)c(-c2c(F)cccc2F)nc1C(=O)Nc1cnc2c(c1N1CCC[C@H](N)C1)CCC2O (single isomer, unassigned) [23 (Diastereoisomer 1)] | ≤ 0.1 | ≤ 0.1 | ≤ 0.1 | –
Nc1cc(F)c(-c2c(F)cccc2F)nc1C(=O)Nc1cnc2c(c1N1CCC[C@H](N)C1)CCC2O (single isomer, unassigned) [23 (Diastereoisomer 2)] | ≤ 0.1 | ≤ 0.1 | ≤ 0.1 | –
C[C@H]1CN(c2c(NC(=O)c3ccc(F)c(-c4c(F)cccc4F)n3)cnc3c2CCC3O)C[C@@H](N)[C@@H]1O (single isomer, unassigned) [37 (Diastereoisomer 1)] | ≤ 0.1 | ≤ 0.1 | ≤ 0.1 | –
C[C@H]1CN(c2c(NC(=O)c3ccc(F)c(-c4c(F)cccc4F)n3)cnc3c2CCC3O)C[C@@H](N)[C@@H]1O (single isomer, unassigned) [37 (Diastereoisomer 2)] | ≤ 0.1 | ≤ 0.1 | ≤ 0.1 | –
Nc1sc(-c2c(F)cccc2F)nc1C(=O)Nc1cnc2c(c1N1C[C@@H](N)C[C@@H](C(F)(F)F)C1)CCC2O (single isomer, unassigned) [44 (Diastereoisomer 1)] | ≤ 0.1 | ≤ 0.1 | ≤ 0.1 | –

SMILES | IC50 (Pim-2; 1 mM ATP, read-out: Pim2 IC50) [µM] | IC50 (Pim-3) [µM] | IC50 (Pim-1) [µM] | IC50 (Pim-2; Km ATP concentration rather than 1 mM, read-out: Pim2 IC50 at Km ATP concentration) [µM]
Nc1sc(-c2c(F)cccc2F)nc1C(=O)Nc1cnc2c(c1N1C[C@@H](N)C[C@@H](C(F)(F)F)C1)CCC2O (single isomer, unassigned) [44 (Diastereoisomer 2)] | ≤ 0.1 | ≤ 0.1 | ≤ 0.1 | –
C[C@@H]1C[C@H](N)CN(c2c(NC(=O)c3ccc(F)c(-c4c(F)cccc4F)n3)cnc3c2CCC3O)C1 (single isomer, unassigned) [45 (Diastereoisomer 1)] | ≤ 0.1 | ≤ 0.1 | ≤ 0.1 | –
C[C@@H]1C[C@H](N)CN(c2c(NC(=O)c3ccc(F)c(-c4c(F)cccc4F)n3)cnc3c2CCC3O)C1 (single isomer, unassigned) [45 (Diastereoisomer 2)] | ≤ 0.1 | ≤ 0.1 | ≤ 0.1 | –
C[C@@H]1C[C@H](N)CN(c2c(NC(=O)c3nc(-c4c(F)cccc4F)c(F)cc3N)cnc3c2CCC3O)C1 (single isomer, unassigned) [46 (Diastereoisomer 1)] | ≤ 0.1 | ≤ 0.1 | ≤ 0.1 | –
C[C@@H]1C[C@H](N)CN(c2c(NC(=O)c3nc(-c4c(F)cccc4F)c(F)cc3N)cnc3c2CCC3O)C1 (single isomer, unassigned) [46 (Diastereoisomer 2)] | ≤ 0.1 | ≤ 0.1 | ≤ 0.1 | –
C[C@@H]1C[C@H](N)CN(c2c(NC(=O)c3nc(-c4c(F)cccc4F)sc3N)cnc3c2CCC3O)C1 (single isomer, unassigned) [47 (Diastereoisomer 1)] | ≤ 0.1 | ≤ 0.1 | ≤ 0.1 | –
C[C@@H]1C[C@H](N)CN(c2c(NC(=O)c3nc(-c4c(F)cccc4F)sc3N)cnc3c2CCC3O)C1 (single isomer, unassigned) [47 (Diastereoisomer 2)] | ≤ 0.1 | ≤ 0.1 | ≤ 0.1 | –
C[C@H]1CN(c2c(NC(=O)c3nc(-c4c(F)cccc4F)c(F)cc3N)cnc3c2CCC3O)C[C@@H](N)[C@@H]1O (single isomer, unassigned) [48 (Diastereoisomer 1)] | 0.1 to 1 | ≤ 0.1 | ≤ 0.1 | –
C[C@H]1CN(c2c(NC(=O)c3nc(-c4c(F)cccc4F)c(F)cc3N)cnc3c2CCC3O)C[C@@H](N)[C@@H]1O (single isomer, unassigned) [48 (Diastereoisomer 2)] | ≤ 0.1 | ≤ 0.1 | ≤ 0.1 | –
C[C@H]1CN(c2c(NC(=O)c3nc(-c4c(F)cccc4F)sc3N)cnc3c2CCC3O)C[C@@H](N)[C@@H]1O (single isomer, unassigned) [49 (Diastereoisomer 1)] | ≤ 0.1 | ≤ 0.1 | ≤ 0.1 | –
C[C@H]1CN(c2c(NC(=O)c3nc(-c4c(F)cccc4F)sc3N)cnc3c2CCC3O)C[C@@H](N)[C@@H]1O (single isomer, unassigned) [49 (Diastereoisomer 2)] | ≤ 0.1 | ≤ 0.1 | ≤ 0.1 | –
CCOc1cc(F)c(-c2nc(C(=O)Nc3cnc4c(c3N3C[C@@H](N)[C@H](O)[C@@H](C)C3)CCC4O)ccc2F)c(F)c1 (single isomer, unassigned) [51 (Diastereoisomer 1)] | ≤ 0.1 | ≤ 0.1 | ≤ 0.1 | –
CCOc1cc(F)c(-c2nc(C(=O)Nc3cnc4c(c3N3C[C@@H](N)[C@H](O)[C@@H](C)C3)CCC4O)ccc2F)c(F)c1 (single isomer, unassigned) [51 (Diastereoisomer 2)] | ≤ 0.1 | ≤ 0.1 | ≤ 0.1 | –
COc1ccc(F)c(-c2nc(C(=O)Nc3cnc4c(c3N3CCC[C@H](N)C3)CCC4O)c(N)s2)c1F (single isomer, unassigned) [53 (Diastereoisomer 1)] | ≤ 0.1 | ≤ 0.1 | ≤ 0.1 | –
N[C@H]1CCCN(c2c(NC(=O)c3csc(-c4c(F)cccc4F)n3)cnc3[nH]ncc23)C1 [compound 35] | – | – | – | 1 to 10

From patent US10265307B2, “Thiazolecarboxamides and pyridinecarboxamide compounds useful as Pim kinase inhibitors” (Incyte Corporation, priority 2013, dated 2019)
